Data: US10946017B2, “Tank-binding kinase-1 PROTACs and associated methods of use” (Arvinas Operations, Inc., priority 2015, dated 2021)

Tests used:
TBK1 [1] = biological target: T1, TBK1 (Homo sapiens (Human), UniProt Q9UHD2); assay: In vitro TBK1 degradation assay, Panc02.13 cells (compounds 3-33), immunoblot; type: cell-based; details: TBK1 degradation, Panc02.13 cells, 16 h, mean of ≥ 2 determinations; for DC50: read-out: DC50 (concentration at which 50% degradation is observed)
Method: In vitro degradation assay protocol for compounds 3-33: Panc02.13 cells were purchased from ATCC and cultured in RPMI-1640 (Gibco), supplemented with 15% FBS (ATCC) and 10 Units/mL human recombinant insulin (Gibco). PROTAC treatments were carried out in 12-well plates for 16 h. TLR3 agonist Poly I:C (Invivogen; tlr1-pic) was added for the final 3 h. Cells were harvested, and lysed in RIPA buffer (50 mM Tris pH8, 150 mM NaCl, 1% Tx-100, 0.1% SDS, 0.5% Sodium Deoxycholate) supplemented with protease and phosphatase inhibitors. Lysates were clarified at 16,000 g for 10 minutes, and supernatants were separated by SDS-PAGE. Immunoblotting was performed using standard protocols. The antibodies used were TBK1 (Cell Signaling#3504), pIRF3 (abcam#ab76493), and GAPDH (Cell Signaling#5174).

[2] = biological target: Von Hippel-Lindau (VHL) E3 ligase (Homo sapiens (Human), UniProt P40337); assay: VHL binding, FP assay; details: affinity of the VHL ligand component with side chain R2
TBK1 [3] = biological target: T1, TBK1; assay: In vitro TBK1 degradation assay, MDA MB 231 cells (compounds 34-57), immunoblot; type: cell-based; details: 1 uM compound, 16 h, read-out: % TBK1 remaining at 1 uM Cmpd
Method: MDA MB 231 cells were purchased from ATCC and cultured in RPMI-1640 (Gibco), supplemented with 10% FBS (Gibco). PROTAC treatments were carried out in 24-well plates for 16 h. Cells were harvested, and lysed in RIPA buffer (50 mM Tris pH8, 150 mM NaCl, 1% Tx-100, 0.1% SDS, 0.5% Sodium Deoxycholate) supplemented with protease and phosphatase inhibitors. Lysates were clarified at 16,000 g for 10 minutes, and supernatants were separated by SDS-PAGE. Immunoblotting was performed using standard protocols. The antibodies used were TBK1 (Cell Signaling#3504) and GAPDH (Cell Signaling#5174).

T1 sequence (Q9UHD2 whole entry): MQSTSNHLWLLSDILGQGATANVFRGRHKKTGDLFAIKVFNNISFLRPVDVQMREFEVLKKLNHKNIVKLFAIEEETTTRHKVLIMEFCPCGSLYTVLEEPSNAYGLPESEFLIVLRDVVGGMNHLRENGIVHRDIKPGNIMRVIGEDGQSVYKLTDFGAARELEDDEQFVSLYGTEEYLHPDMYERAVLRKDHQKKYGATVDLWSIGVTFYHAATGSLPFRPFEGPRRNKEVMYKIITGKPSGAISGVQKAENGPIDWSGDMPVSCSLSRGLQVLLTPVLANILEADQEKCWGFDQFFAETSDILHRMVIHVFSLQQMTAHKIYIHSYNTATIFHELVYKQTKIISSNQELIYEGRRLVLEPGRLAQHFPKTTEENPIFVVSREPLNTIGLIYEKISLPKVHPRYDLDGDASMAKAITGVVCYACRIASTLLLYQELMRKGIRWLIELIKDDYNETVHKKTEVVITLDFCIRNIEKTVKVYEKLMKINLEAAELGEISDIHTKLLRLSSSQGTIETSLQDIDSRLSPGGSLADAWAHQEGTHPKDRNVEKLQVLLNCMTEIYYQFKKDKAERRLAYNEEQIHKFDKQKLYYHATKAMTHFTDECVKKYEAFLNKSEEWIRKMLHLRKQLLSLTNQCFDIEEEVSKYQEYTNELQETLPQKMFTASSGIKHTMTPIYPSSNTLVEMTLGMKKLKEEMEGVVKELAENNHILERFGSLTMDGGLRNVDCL
Chain of Von Hippel-Lindau (VHL) E3 ligase (P40337 whole entry, looked up): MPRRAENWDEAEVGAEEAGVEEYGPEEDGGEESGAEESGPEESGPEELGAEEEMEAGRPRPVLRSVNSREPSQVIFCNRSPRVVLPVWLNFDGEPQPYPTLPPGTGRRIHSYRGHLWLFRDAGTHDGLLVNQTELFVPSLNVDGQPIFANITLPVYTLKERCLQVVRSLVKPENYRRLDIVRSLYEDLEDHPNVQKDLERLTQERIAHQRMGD
Chain of Von Hippel-Lindau (VHL) E3 ligase (Q15370 whole entry partner, looked up): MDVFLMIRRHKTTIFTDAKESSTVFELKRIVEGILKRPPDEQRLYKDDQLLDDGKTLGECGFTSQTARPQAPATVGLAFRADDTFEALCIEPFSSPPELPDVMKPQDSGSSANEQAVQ
Chain of Von Hippel-Lindau (VHL) E3 ligase (Q15369 whole entry partner, looked up): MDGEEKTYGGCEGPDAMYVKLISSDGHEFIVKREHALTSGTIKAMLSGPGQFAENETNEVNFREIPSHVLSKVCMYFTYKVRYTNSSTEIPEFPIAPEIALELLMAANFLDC

Row | remaining activity at 1 µM (TBK1 [3]) | SMILES | DC50 (TBK1 [1]) | Dmax (maximal degradation observed) (TBK1 [1]) | also measured
1 | – | Cc1ncsc1-c1ccc(CNC(=O)[C@@H]2C[C@@H](O)CN2C(=O)[C@@H](NC(=O)CCCCCOCCOc2ccc(Nc3ncc(Br)c(NCCCN(C)C(=O)C4CCC4)n3)cc2)C(C)(C)C)cc1 [Compound 5] | > 1000 nM | – | –
2 | – | Cc1ncsc1-c1ccc(CNC(=O)[C@@H]2C[C@@H](O)CN2C(=O)[C@@H](NC(=O)COCCCOCCCOc2ccc(Nc3ncc(Br)c(NCCCN(C)C(=O)C4CCC4)n3)cc2)C(C)(C)C)cc1 [Compound 6] | > 1000 nM | – | –
3 | – | Cc1ncsc1-c1ccc(CNC(=O)[C@@H]2C[C@@H](O)CN2C(=O)[C@@H](NC(=O)COCCOCCOCCOc2ccc(Nc3ncc(Br)c(NCCCN(C)C(=O)C4CCC4)n3)cc2)C(C)(C)C)cc1 [Compound 7] | > 1000 nM | – | –
4 | – | Cc1ncsc1-c1ccc(CNC(=O)[C@@H]2C[C@@H](O)CN2C(=O)[C@@H](NC(=O)COCCCOCCCCCOc2ccc(Nc3ncc(Br)c(NCCCN(C)C(=O)C4CCC4)n3)cc2)C(C)(C)C)cc1 [Compound 8] | 88 nM | 79% | –
5 | – | Cc1ncsc1-c1ccc(CNC(=O)[C@@H]2C[C@@H](O)CN2C(=O)[C@@H](NC(=O)COCCOCCOCCCCOc2ccc(Nc3ncc(Br)c(NCCCN(C)C(=O)C4CCC4)n3)cc2)C(C)(C)C)cc1 [Compound 9] | 71 nM | 86% | –
6 | – | Cc1ncsc1-c1ccc(CNC(=O)[C@@H]2C[C@@H](O)CN2C(=O)[C@@H](NC(=O)COCCOCCOCCOCCOc2ccc(Nc3ncc(Br)c(NCCCN(C)C(=O)C4CCC4)n3)cc2)C(C)(C)C)cc1 [Compound 10] | 103 nM | 92% | –
7 | – | Cc1ncsc1-c1ccc(CNC(=O)[C@@H]2C[C@@H](O)CN2C(=O)[C@@H](NC(=O)CCCCCOCCCCOCCCCOc2ccc(Nc3ncc(Br)c(NCCCN(C)C(=O)C4CCC4)n3)cc2)C(C)(C)C)cc1 [Compound 12] | 95 nM | 90% | –
8 | – | Cc1ncsc1-c1ccc(CNC(=O)[C@@H]2C[C@@H](O)CN2C(=O)[C@@H](NC(=O)COCCOCCOCCOCCOCCOc2ccc(Nc3ncc(Br)c(NCCCN(C)C(=O)C4CCC4)n3)cc2)C(C)(C)C)cc1 [Compound 13] | 29 nM | 96% | –
9 | – | Cc1ncsc1-c1ccc(CNC(=O)[C@@H]2C[C@@H](O)CN2C(=O)[C@@H](NC(=O)COCCOCCCCOCCCCOCCOc2ccc(Nc3ncc(Br)c(NCCCN(C)C(=O)C4CCC4)n3)cc2)C(C)(C)C)cc1 [Compound 14] | 6 nM | 96% | –
10 | – | Cc1ncsc1-c1ccc(CNC(=O)[C@@H]2C[C@@H](O)CN2C(=O)[C@@H](NC(=O)CCOCCCOCCCOCCCOCCCOc2ccc(Nc3ncc(Br)c(NCCCN(C)C(=O)C4CCC4)n3)cc2)C(C)(C)C)cc1 [Compound 15] | 25 nM | 96% | –
11 | – | Cc1ncsc1-c1ccc(CNC(=O)[C@@H]2C[C@@H](O)CN2C(=O)[C@@H](NC(=O)COCCOCCOCCOCCOCCOCCOc2ccc(Nc3ncc(Br)c(NCCCN(C)C(=O)C4CCC4)n3)cc2)C(C)(C)C)cc1 [Compound 16] | 34 nM | 96% | –
12 | – | Cc1ncsc1-c1ccc(CNC(=O)[C@@H]2C[C@@H](O)CN2C(=O)[C@@H](NC(=O)COCCOCCCCOCCCCOCCOCCOc2ccc(Nc3ncc(Br)c(NCCCN(C)C(=O)C4CCC4)n3)cc2)C(C)(C)C)cc1 [Compound 17] | 3 nM | 96% | –
13 | – | Cc1ncsc1-c1ccc(CNC(=O)[C@@H]2C[C@@H](O)CN2C(=O)CNC(=O)COCCCOCCCCOCCCOc2ccc(Nc3ncc(Br)c(NCCCN(C)C(=O)C4CCC4)n3)cc2)cc1 [Compound 29] | > 1000 nM | 0% | IC50 [2]: 106000 nM
14 | – | Cc1ncsc1-c1ccc(CNC(=O)[C@@H]2C[C@@H](O)CN2C(=O)[C@H](C)NC(=O)COCCCOCCCCOCCCOc2ccc(Nc3ncc(Br)c(NCCCN(C)C(=O)C4CCC4)n3)cc2)cc1 [Compound 30] | > 1000 nM | 34% | IC50 [2]: 23600 nM
15 | 41 to 80% | Cc1ncsc1-c1ccc(CNC(=O)[C@@H]2C[C@@H](O)CN2C(=O)[C@H](C(C)C)N2Cc3ccccc3C2=O)c(OCCOCCOc2ccc(Nc3ncc(Br)c(NCCCN(C)C(=O)C4CCC4)n3)cc2)c1 [Compound 34] | – | – | –
16 | ≥ 81% | Cc1ncsc1-c1ccc(CNC(=O)[C@@H]2C[C@@H](O)CN2C(=O)[C@H](C(C)C)N2Cc3ccccc3C2=O)c(OCCOCCOCCOc2ccc(Nc3ncc(Br)c(NCCCN(C)C(=O)C4CCC4)n3)cc2)c1 [Compound 35] | – | – | –
17 | ≥ 81% | Cc1ncsc1-c1ccc(CNC(=O)[C@@H]2C[C@@H](O)CN2C(=O)[C@H](C(C)C)N2Cc3ccccc3C2=O)c(OCCOCCOCCOCCOc2ccc(Nc3ncc(Br)c(NCCCN(C)C(=O)C4CCC4)n3)cc2)c1 [Compound 36] | – | – | –

Row | remaining activity at 1 µM (TBK1 [3]) | SMILES | DC50 (TBK1 [1]) | Dmax (maximal degradation observed) (TBK1 [1]) | also measured
18 | ≥ 81% | Cc1ncsc1-c1ccc(CNC(=O)[C@@H]2C[C@@H](O)CN2C(=O)[C@H](C(C)C)N2Cc3ccccc3C2=O)c(OCCOCCOCCOCCOCCOCCOc2ccc(Nc3ncc(Br)c(NCCCN(C)C(=O)C4CCC4)n3)cc2)c1 [Compound 37] | – | – | –
19 | ≥ 81% | Cc1ncsc1-c1ccc(CNC(=O)[C@@H]2C[C@@H](O)CN2C(=O)[C@H](C(C)C)N2Cc3ccccc3C2=O)c(OCCOCCOCCOCCOCCOc2ccc(Nc3ncc(Br)c(NCCCN(C)C(=O)C4CCC4)n3)cc2)c1 [Compound 38] | – | – | –
20 | ≥ 81% | Cc1ncsc1-c1ccc(CNC(=O)[C@@H]2C[C@@H](O)CN2C(=O)[C@H](C(C)C)N2Cc3ccccc3C2=O)c(OCCCCOc2ccc(Nc3ncc(Br)c(NCCCN(C)C(=O)C4CCC4)n3)cc2)c1 [Compound 39] | – | – | –
21 | ≥ 81% | Cc1ncsc1-c1ccc(CNC(=O)[C@@H]2C[C@@H](O)CN2C(=O)[C@H](C(C)C)N2Cc3ccccc3C2=O)c(OCCCCOCCCCOc2ccc(Nc3ncc(Br)c(NCCCN(C)C(=O)C4CCC4)n3)cc2)c1 [Compound 40] | – | – | –
22 | ≥ 81% | Cc1ncsc1-c1ccc(CNC(=O)[C@@H]2C[C@@H](O)CN2C(=O)[C@H](C(C)C)N2Cc3ccccc3C2=O)c(OCCCOCCCOc2ccc(Nc3ncc(Br)c(NCCCN(C)C(=O)C4CCC4)n3)cc2)c1 [Compound 41] | – | – | –
23 | 41 to 80% | Cc1ncsc1-c1ccc(CNC(=O)[C@@H]2C[C@@H](O)CN2C(=O)[C@H](C(C)C)N2Cc3ccccc3C2=O)c(OCCOCCOCCCOCCOCCOc2ccc(Nc3ncc(Br)c(NCCCN(C)C(=O)C4CCC4)n3)cc2)c1 [Compound 42] | – | – | –
24 | 41 to 80% | Cc1ncsc1-c1ccc(CNC(=O)[C@@H]2C[C@@H](O)CN2C(=O)[C@H](C(C)C)N2Cc3ccccc3C2=O)c(OCCOCCCOc2ccc(Nc3ncc(Br)c(NCCCN(C)C(=O)C4CCC4)n3)cc2)c1 [Compound 43] | – | – | –
25 | 41 to 80% | Cc1ncsc1-c1ccc(CNC(=O)[C@@H]2C[C@@H](O)CN2C(=O)[C@H](C(C)C)N2Cc3ccccc3C2=O)c(OCCCOCCCCOCCCOc2ccc(Nc3ncc(Br)c(NCCCN(C)C(=O)C4CCC4)n3)cc2)c1 [Compound 44] | – | – | –
26 | 41 to 80% | Cc1ncsc1-c1ccc(CNC(=O)[C@@H]2C[C@@H](O)CN2C(=O)[C@H](C(C)C)N2Cc3ccccc3C2=O)c(OCCOCCOCCCCOCCOCCOc2ccc(Nc3ncc(Br)c(NCCCN(C)C(=O)C4CCC4)n3)cc2)c1 [Compound 45] | – | – | –
27 | 41 to 80% | Cc1ncsc1-c1ccc(CNC(=O)[C@@H]2C[C@@H](O)CN2C(=O)[C@H](C(C)C)N2Cc3ccccc3C2=O)c(OCCCOCCCOCCOc2ccc(Nc3ncc(Br)c(NCCCN(C)C(=O)C4CCC4)n3)cc2)c1 [Compound 46] | – | – | –
28 | 0 to 40% | Cc1ncsc1-c1ccc(CNC(=O)[C@@H]2C[C@@H](O)CN2C(=O)[C@H](C(C)C)N2Cc3ccccc3C2=O)c(OCCCOCCCOCCOCCCOCCCOc2ccc(Nc3ncc(Br)c(NCCCN(C)C(=O)C4CCC4)n3)cc2)c1 [Compound 48] | – | – | –
29 | ≥ 81% | Cc1cnc(Nc2cccc(OCCCOCCCCOCCCOCC(=O)N[C@H](C(=O)N3C[C@H](O)C[C@H]3C(=O)NCc3ccc(-c4scnc4C)cc3)C(C)(C)C)c2)nc1NCCCN(C)C(=O)C1CCC1 [Compound 50] | – | – | –
30 | ≥ 81% | Cc1ncsc1-c1ccc(CNC(=O)[C@@H]2C[C@@H](O)CN2C(=O)[C@@H](NC(=O)COCCCOCCCCOCCCOc2cccc(Nc3ncc(C4CC4)c(NCCCN(C)C(=O)C4CCC4)n3)c2)C(C)(C)C)cc1 [Compound 51] | – | – | –
31 | ≥ 81% | CCc1cnc(Nc2cccc(OCCCOCCCCOCCCOCC(=O)N[C@H](C(=O)N3C[C@H](O)C[C@H]3C(=O)NCc3ccc(-c4scnc4C)cc3)C(C)(C)C)c2)nc1NCCCN(C)C(=O)C1CCC1 [Compound 52] | – | – | –
32 | ≥ 81% | Cc1ncsc1-c1ccc(CNC(=O)[C@@H]2C[C@@H](O)CN2C(=O)[C@@H](NC(=O)COCCCOCCCCOCCCOc2cccc(Nc3ncc4c(n3)N(CCCN(C)C(=O)C3CCC3)CC4)c2)C(C)(C)C)cc1 [Compound 53] | – | – | –
33 | 41 to 80% | C=Cc1cnc(Nc2cccc(OCCCOCCCCOCCCOCC(=O)N[C@H](C(=O)N3C[C@H](O)C[C@H]3C(=O)NCc3ccc(-c4scnc4C)cc3)C(C)(C)C)c2)nc1NCCCN(C)C(=O)C1CCC1 [Compound 54] | – | – | –
